Where a name gives a salt, the structure may show the parent alone.

This assay concerns rabbits (New Zealand White). The experiment in a line: Ocular hypotensive effect in rabbits. The settings on record: male New Zealand White rabbits, 0.04 mL eye drop, concentration of 1% (w/v) or lower, maximum ocular hypotensive rate vs vehicle-treated contralateral eye. The assay is classed as in vivo, rabbit. The protocol: The compound of the present invention was administered to rabbits (New Zealand White, sex: male, 3 to 6 per group) and evaluated for its ocular hypotensive effect.
Each test compound was dissolved in a vehicle 1 (1.04 g of sodium dihydrogen phosphate dihydrate and 0.5 g of sodium chloride dissolved in purified water and then adjusted to pH 7.0 with sodium hydroxide to make the total amount to 100 mL) or a vehicle 2 (2% (w/v) aqueous boric acid solution) to prepare a test compound solution with a predetermined concentration.
The intraocular pressures of the rabbits were measured using Tiolat TonoVet handheld tonometer immediately before administration of test compound. The test compound solution and the vehicle were dropped at a volume of 0.04 mL to one eye and the contralateral eye, respectively, and the intraocular pressures were measured over time in the same way as above. The rate of the intraocular pressure of the eye receiving the test compound solution to that of the eye receiving the vehicle was calculated as an ocular hypotensive rate.
With `C[C@H](CN(CCc1ccccc1)C(=O)CN)NS(=O)(=O)c1ccc2cnccc2c1.Cl` [Example 100, (R)-2-amino-N-[2-(isoquinoline-6-sulfonamido)propyl]-N-phenylethylacetamide hydrochloride], the Ocular hypotensive activity entry is “++ (maximum ocular hypotensive rate of 15% or more)”.

`C[C@H](CNCCc1ccoc1)NS(=O)(=O)c1ccc2cnccc2c1.Cl` [Example 67, (R)—N-[1-{2-(furan-3-yl)ethylamino}propan-2-yl]isoquinoline-6-sulfonamide hydrochloride]: the Ocular hypotensive activity result is given as “++ (maximum ocular hypotensive rate of 15% or more)”. For `Cc1cncc2ccc(S(=O)(=O)N[C@H](C)CNCCc3ccc(F)cc3)cc12.Cl` [Example 113, (R)—N-{1-(4-fluorophenethylamino)propan-2-yl}-4-methyl-isoquinoline-6-sulfonamide hydrochloride], the Ocular hypotensive activity entry is “++ (maximum ocular hypotensive rate of 15% or more)”. For the compound `CCNC[C@@H](C)NS(=O)(=O)c1ccc2cnccc2c1` [Example 3, (R)—N-{1-(ethylamino)propan-2-yl}isoquinoline-6-sulfonamide dihydrochloride], the Ocular hypotensive activity entry is on record as “++ (maximum ocular hypotensive rate of 15% or more)”. Consider `C[C@H](CC(N)CCc1ccccc1)NS(=O)(=O)c1ccc2cnccc2c1` (single isomer, unassigned; diastereomer b) [Example 119], for which the Ocular hypotensive activity entry is recorded as “++ (maximum ocular hypotensive rate of 15% or more)”. As for `Cc1cccc(CCNC[C@@H](C)NS(=O)(=O)c2ccc3cnccc3c2)c1.Cl` [Example 57, (R)—N-{1-(3-methylphenethylamino)propan-2-yl}isoquinoline-6-sulfonamide hydrochloride], the Ocular hypotensive activity entry was “++ (maximum ocular hypotensive rate of 15% or more)”. With `C[C@H](CNCC1CC1)NS(=O)(=O)c1ccc2cnccc2c1` [Example 18, (R)—N-{1-(cyclopropylmethylamino)propan-2-yl}isoquinoline-6-sulfonamide dihydrochloride], the Ocular hypotensive activity entry is listed as “++ (maximum ocular hypotensive rate of 15% or more)”. `C[C@@H](CNCCc1c[nH]c2ccccc12)NS(=O)(=O)c1ccc2cnccc2c1.Cl` [Example 37, (S)—N-[1-{2-(1H-indol-3-yl)ethylamino}propan-2-yl]isoquinoline-6-sulfonamide hydrochloride]: the Ocular hypotensive activity entry is reported as “++ (maximum ocular hypotensive rate of 15% or more)”. Under `CCCCNC[C@@H](C)N(CC)S(=O)(=O)c1ccc2cnccc2c1.Cl` [Example 96, (R)—N-[1-(butylamino)propan-2-yl]-N-ethylisoquinoline-6-sulfonamide hydrochloride] stands “++ (maximum ocular hypotensive rate of 15% or more)”; under `CO[C@H](CNC[C@@H](C)NS(=O)(=O)c1ccc2cnccc2c1)c1ccccc1.Cl` [Example 48, N—[(R)-1-{(S)-2-methoxy-2-phenylethylamino}propan-2-yl]isoquinoline-6-sulfonamide hydrochloride], “++ (maximum ocular hypotensive rate of 15% or more)”. Consider `CNC(CCc1ccccc1)C[C@@H](C)NS(=O)(=O)c1ccc2cnccc2c1` (stereo partly drawn) [Example 120, N-{(2R)-4-(methylamino)-6-phenylhexan-2-yl}isoquinoline-6-sulfonamide dihydrochloride], for which the Ocular hypotensive activity entry is on record as “++ (maximum ocular hypotensive rate of 15% or more)”. With `C[C@H](CNCC(=O)c1ccccc1)NS(=O)(=O)c1ccc2cnccc2c1` [Example 104, (R)—N-{1-(2-oxo-2-phenylethylamino)propan-2-yl}isoquinoline-6-sulfonamide dihydrochloride], the Ocular hypotensive activity entry is listed as “++ (maximum ocular hypotensive rate of 15% or more)”. For the compound `C[C@H](CNCC(C)(C)C)NS(=O)(=O)c1ccc2cnccc2c1` [Example 17, (R)—N-{1-(neopentylamino)propan-2-yl}isoquinoline-6-sulfonamide dihydrochloride], the Ocular hypotensive activity result is “++ (maximum ocular hypotensive rate of 15% or more)”. Consider `C[C@H](CN1CCNCC1)NS(=O)(=O)c1ccc2cnccc2c1` [Example 13, (R)—N-{1-(piperazin-1-yl)propan-2-yl}isoquinoline-6-sulfonamide trihydrochloride], for which the Ocular hypotensive activity result is “+ (maximum ocular hypotensive rate of 5% or more and less than 15%)”.

Take `C[C@H](CNCCC1CCCCC1)NS(=O)(=O)c1ccc2cnccc2c1` [Example 33, (R)—N-{1-(2-cyclohexylethylamino)propan-2-yl}isoquinoline-6-sulfonamide dihydrochloride]: the Ocular hypotensive activity entry is “++ (maximum ocular hypotensive rate of 15% or more)”.

Take `Cc1ccccc1CCNC[C@@H](C)NS(=O)(=O)c1ccc2cnccc2c1.Cl` [Example 56, (R)—N-{1-(2-methylphenethylamino)propan-2-yl}isoquinoline-6-sulfonamide hydrochloride]: the Ocular hypotensive activity entry is “++ (maximum ocular hypotensive rate of 15% or more)”. As to `C[C@H](CNCCCc1ccccc1)NS(=O)(=O)c1ccc2cnccc2c1` [Example 34, (R)—N-{1-(3-phenylpropylamino)propan-2-yl}isoquinoline-6-sulfonamide dihydrochloride], the Ocular hypotensive activity entry was “++ (maximum ocular hypotensive rate of 15% or more)”. `CC(C)[C@H](CNCCc1ccccc1)NS(=O)(=O)c1ccc2cnccc2c1` [Example 27, (R)—N-{3-methyl-1-(phenethylamino)butan-2-yl}isoquinoline-6-sulfonamide dihydrochloride]: the Ocular hypotensive activity entry was “++ (maximum ocular hypotensive rate of 15% or more)”. As to `C[C@H](CNCCc1ccncc1)NS(=O)(=O)c1ccc2cnccc2c1` [Example 42, (R)—N-[1-{2-(pyridin-4-yl)ethylamino}propan-2-yl]isoquinoline-6-sulfonamide trihydrochloride], the Ocular hypotensive activity entry was “+ (maximum ocular hypotensive rate of 5% or more and less than 15%)”.

Regarding `C[C@H](CNC[C@@H](C)c1ccccc1)NS(=O)(=O)c1ccc2cnccc2c1` [Example 26, N—[(R)-1-{(S)-2-phenylpropylamino}propan-2-yl]isoquinoline-6-sulfonamide dihydrochloride], the Ocular hypotensive activity entry is on record as “++ (maximum ocular hypotensive rate of 15% or more)”. The same measure for `C[C@H](CNCC[C@@H](O)c1ccccc1)NS(=O)(=O)c1ccc2cnccc2c1.Cl` [Example 50, N—[(R)-1-{(R)-3-hydroxy-3-phenylpropylamino}propan-2-yl]isoquinoline-6-sulfonamide hydrochloride]: “+ (maximum ocular hypotensive rate of 5% or more and less than 15%)”; for `C[C@H](CNCCc1ccc([N+](=O)[O-])cc1)NS(=O)(=O)c1ccc2cnccc2c1.Cl` [Example 59, (R)—N-{1-(4-nitrophenethylamino)propan-2-yl}isoquinoline-6-sulfonamide hydrochloride]: “++ (maximum ocular hypotensive rate of 15% or more)”. Turning to `C[C@H](CNC/C=C/c1ccccc1)NS(=O)(=O)c1ccc2cnccc2c1` [Example 44, (R, E)-N-{1-(cinnamylamino)propan-2-yl}isoquinoline-6-sulfonamide dihydrochloride], the Ocular hypotensive activity entry was “+ (maximum ocular hypotensive rate of 5% or more and less than 15%)”. For `C[C@H](CNCCc1ccc(NC(N)=O)cc1)NS(=O)(=O)c1ccc2cnccc2c1.Cl` [Example 72, (R)—N-{1-(4-ureidophenethylamino)propan-2-yl}isoquinoline-6-sulfonamide hydrochloride], the Ocular hypotensive activity entry is “+ (maximum ocular hypotensive rate of 5% or more and less than 15%)”. With `C[C@H](CNCCOc1ccccc1)NS(=O)(=O)c1ccc2cnccc2c1` [Example 45, (R)—N-{1-(2-phenoxyethylamino)propan-2-yl}isoquinoline-6-sulfonamide dihydrochloride], the Ocular hypotensive activity result was “++ (maximum ocular hypotensive rate of 15% or more)”. In the case of `C[C@H](CNCCc1ccc(Br)cc1)NS(=O)(=O)c1ccc2cnccc2c1.Cl` [Example 55, (R)—N-{1-(4-bromophenethylamino)propan-2-yl}isoquinoline-6-sulfonamide hydrochloride], the Ocular hypotensive activity entry is listed as “++ (maximum ocular hypotensive rate of 15% or more)”. In the case of `Cc1cncc2ccc(S(=O)(=O)N[C@H](C)CNCCc3ccccc3)cc12.Cl` [Example 112, (R)—N-{1-(phenethylamino)propan-2-yl}-4-methyl-isoquinoline-6-sulfonamide hydrochloride], the Ocular hypotensive activity entry is reported as “++ (maximum ocular hypotensive rate of 15% or more)”. As to `COc1ccc(CCNC[C@@H](C)NS(=O)(=O)c2ccc3cnccc3c2)cc1` [Example 30, (R)—N-{1-(4-methoxyphenethylamino)propan-2-yl}isoquinoline-6-sulfonamide dihydrochloride], the Ocular hypotensive activity entry is listed as “++ (maximum ocular hypotensive rate of 15% or more)”. Regarding `C[C@H](CNCCc1ccc(F)cc1)NS(=O)(=O)c1cc2ccncc2cc1Br.Cl` [Example 76, (R)-7-bromo-N-{1-(4-fluorophenethylamino)propan-2-yl}-isoquinoline-6-sulfonamide hydrochloride], the Ocular hypotensive activity result is “++ (maximum ocular hypotensive rate of 15% or more)”. In the case of `CC(C)CNC[C@@H](C)NS(=O)(=O)c1ccc2cnccc2c1` [Example 14, (R)—N-{1-(isobutylamino)propan-2-yl}isoquinoline-6-sulfonamide dihydrochloride], the Ocular hypotensive activity entry is listed as “++ (maximum ocular hypotensive rate of 15% or more)”.
